Results from paper PMC9127186, “Molecular Basis Underlying Hepatobiliary and Renal Excretion of Phenolic Acids of Salvia miltiorrhiza Roots (Danshen)” (Frontiers in Pharmacology, 2022).

What was measured:
human MRP4 = molecular target: T1, human MRP4 (Homo sapiens, UniProt O15439); test: Vesicular transport assay, inside-out membrane vesicles expressing human MRP4; conditions: for TransportATP/TransportAMP ratio (net transport ratio): 10 min
T1 sequence (O15439 1-1325): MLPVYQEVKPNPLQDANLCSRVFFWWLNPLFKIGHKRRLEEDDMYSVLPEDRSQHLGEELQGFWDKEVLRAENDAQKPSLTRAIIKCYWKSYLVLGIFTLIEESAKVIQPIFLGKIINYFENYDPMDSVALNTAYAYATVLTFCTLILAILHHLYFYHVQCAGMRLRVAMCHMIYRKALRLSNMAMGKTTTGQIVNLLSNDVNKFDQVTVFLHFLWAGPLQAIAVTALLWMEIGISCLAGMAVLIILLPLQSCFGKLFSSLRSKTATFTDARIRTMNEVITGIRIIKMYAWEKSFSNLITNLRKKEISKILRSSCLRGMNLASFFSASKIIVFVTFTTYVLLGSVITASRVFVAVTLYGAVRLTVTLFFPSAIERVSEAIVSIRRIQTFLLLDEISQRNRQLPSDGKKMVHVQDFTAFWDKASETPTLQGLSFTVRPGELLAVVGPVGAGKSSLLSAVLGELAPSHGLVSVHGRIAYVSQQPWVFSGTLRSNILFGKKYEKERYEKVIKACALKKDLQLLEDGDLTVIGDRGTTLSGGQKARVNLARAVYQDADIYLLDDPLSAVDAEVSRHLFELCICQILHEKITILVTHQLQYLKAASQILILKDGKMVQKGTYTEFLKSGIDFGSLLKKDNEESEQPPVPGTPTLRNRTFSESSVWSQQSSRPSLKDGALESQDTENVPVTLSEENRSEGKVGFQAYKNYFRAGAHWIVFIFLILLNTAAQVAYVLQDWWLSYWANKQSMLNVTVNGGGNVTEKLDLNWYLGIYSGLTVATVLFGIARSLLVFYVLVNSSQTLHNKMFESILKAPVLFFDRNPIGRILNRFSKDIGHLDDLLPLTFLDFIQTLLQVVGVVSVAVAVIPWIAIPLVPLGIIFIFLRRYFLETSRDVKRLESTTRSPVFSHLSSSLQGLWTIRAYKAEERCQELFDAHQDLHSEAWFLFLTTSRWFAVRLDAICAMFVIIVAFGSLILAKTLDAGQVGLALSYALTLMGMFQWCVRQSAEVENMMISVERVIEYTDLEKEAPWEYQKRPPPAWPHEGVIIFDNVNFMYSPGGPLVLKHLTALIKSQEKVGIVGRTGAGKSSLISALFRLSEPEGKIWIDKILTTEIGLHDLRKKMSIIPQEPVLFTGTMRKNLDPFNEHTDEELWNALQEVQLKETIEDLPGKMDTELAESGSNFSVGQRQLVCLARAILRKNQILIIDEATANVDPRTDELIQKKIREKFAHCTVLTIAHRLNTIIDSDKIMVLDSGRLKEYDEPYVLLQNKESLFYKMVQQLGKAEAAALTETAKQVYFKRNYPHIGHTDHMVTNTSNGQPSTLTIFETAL
Procedure: (§1) Inside-out membrane vesicles (5 mg protein/mL), prepared from insect cells expressing human multidrug resistance-associated protein (MRP) 2, MRP3, MRP4, breast cancer resistance protein (BCRP), bile salt export pump (BSEP), and multidrug resistance protein (MDR) one and rat Mrp2, Mrp4, Bcrp, and Bsep, and vesicles (5 mg protein/mL; prepared from the insect cells expressing no ABC transporter; serving as negative control) were obtained from Genomembrane (Kanazawa, Japan).
(§2) The test Danshen compounds at 100 µM final concentration were separately incubated with the membrane vesicles for 10 min. Buffer C (50 mM MOPS-tris, 70 mM KCl, 7.5 mM MgCl2, pH 7.0) was used for preincubation and incubation, while buffer D (40 mM MOPS-tris, 70 mM KCl, pH 7.0) was used for vesicle washing. The transport rate (pmol/mg protein/min) of the test Danshen compound was calculated using Equation (2): Transport=(CV×VV)/T/WV (2) where C V, V V, T, and W V represent concentration of the compound in vesicular lysates supernatant (μM), volume of the lysates (μL), incubation time (10 min), and amount of vesicle protein amount per well (0.05 mg), respectively. Differential transport of the test Danshen compound between ATP-containing vesicles and AMP-containing vesicles was defined as net transport ratio (TransportATP/TransportAMP ratio). […] All the incubation samples were analyzed by liquid chromatography/mass spectrometry.

human BCRP = molecular target: T2, human BCRP (Homo sapiens, UniProt Q9UNQ0); test: Vesicular transport assay, inside-out membrane vesicles expressing human BCRP; conditions: 10 min
T2 sequence (Q9UNQ0 1-655): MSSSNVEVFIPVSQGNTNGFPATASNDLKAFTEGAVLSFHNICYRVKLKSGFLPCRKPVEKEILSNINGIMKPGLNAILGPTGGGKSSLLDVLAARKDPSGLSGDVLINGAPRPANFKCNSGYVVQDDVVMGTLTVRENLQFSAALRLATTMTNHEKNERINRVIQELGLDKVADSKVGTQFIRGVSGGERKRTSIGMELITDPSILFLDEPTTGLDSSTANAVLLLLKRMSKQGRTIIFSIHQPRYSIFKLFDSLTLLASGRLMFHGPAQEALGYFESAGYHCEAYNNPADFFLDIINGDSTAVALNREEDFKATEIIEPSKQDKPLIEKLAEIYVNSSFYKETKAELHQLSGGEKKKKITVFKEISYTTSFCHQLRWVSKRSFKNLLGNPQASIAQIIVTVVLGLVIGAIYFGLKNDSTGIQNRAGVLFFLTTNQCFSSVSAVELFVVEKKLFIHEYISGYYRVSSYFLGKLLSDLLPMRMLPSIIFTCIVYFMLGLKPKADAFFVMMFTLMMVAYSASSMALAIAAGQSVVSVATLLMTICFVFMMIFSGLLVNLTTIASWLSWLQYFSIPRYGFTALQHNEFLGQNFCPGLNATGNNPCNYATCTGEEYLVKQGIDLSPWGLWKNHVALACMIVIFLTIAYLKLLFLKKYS
Procedure: as §1, §2

[1] = Danshen phenolic acid at 100 μM final concentration, human MRP4 vesicles
[2] = Danshen phenolic acid at 100 μM final concentration, human BCRP vesicles

With `O=C(/C=C/c1ccc(O)c2c1[C@H](C(=O)O)[C@@H](c1ccc(O)c(O)c1)O2)O[C@H](Cc1ccc(O)c(O)c1)C(=O)O` [Lithospermic acid, lithospermic acid] the “TransportATP/TransportAMP ratio (net transport ratio)” value (“TransportATP/TransportAMP ratio” below) (human MRP4; [1]) was 1.36 ± 0.14 and the “TransportATP/TransportAMP ratio” value (human BCRP; [2]) was 1.12 ± 0.31.

For `O=C(O)c1ccc(O)c(O)c1` [Protocatechuic acid, protocatechuic acid], the “TransportATP/TransportAMP ratio” value (human MRP4; [1]) was 1.25 ± 0.14 and the “TransportATP/TransportAMP ratio” value (human BCRP; [2]) was 1.04 ± 0.19.

With `O=C(/C=C/c1ccc(O)c(O)c1)O[C@H](Cc1ccc(O)c(O)c1)C(=O)O` [Rosmarinic acid, rosmarinic acid] the “TransportATP/TransportAMP ratio” value (human MRP4; human, 100 μM, pH 7) was 1.99 ± 0.08 and the “TransportATP/TransportAMP ratio” value (human BCRP; human, not told, 100 μM, pH 7) was 1.12 ± 0.55.

With `O=C(/C=C/c1ccc(O)c(O)c1/C=C/c1ccc(O)c(O)c1)O[C@H](Cc1ccc(O)c(O)c1)C(=O)O` [Salvianolic acid A, salvianolic acid A] the “TransportATP/TransportAMP ratio” value (human MRP4; human, 100 μM, pH 7) was 1.56 ± 0.05 and the “TransportATP/TransportAMP ratio” value (human BCRP; human, not told, 100 μM, pH 7) was 1.12 ± 0.35.

`O=C(O)Cc1c(/C=C/C(=O)O[C@H](Cc2ccc(O)c(O)c2)C(=O)O)ccc(O)c1O` [Salvianolic acid D, salvianolic acid D] was tested, and the “substrate of human MRP4” value (human MRP4) was “substrate”, the “TransportATP/TransportAMP ratio” value (human MRP4; [1]) was 5.27 ± 0.51 and the “TransportATP/TransportAMP ratio” value (human BCRP; [2]) was 2.22 ± 0.61.

With salvianolic acid B the “TransportATP/TransportAMP ratio” value (human MRP4; [1]) was 1.99 ± 0.06 and the “TransportATP/TransportAMP ratio” value (human BCRP; [2]) was 1.54 ± 0.78.
